The values that follow come from US20230248832A1, “Small Molecule Ligand-Drug Conjugates for Targeted Cancer Therapy” (Emory University, priority 2008, published 2023).

“Also recorded” adds a separate entry of the source. Read-outs that look alike come from different tables or passages of the source.

Data set [1] deals with cancer. Kind of data set: In vivo cancer targeting of IR783 derivatives.
The test system of data set [2] is cancer. Kind of data set: In vitro cancer targeting of IR783 derivatives. It counts as cell-based.
Data set [3] in a line: Body weight during treatment of C4-2 tumor-bearing mice. It counts as in vivo, athymic nude mice. The settings on record: i.p. From the text: During treatment, the body weights were obtained daily.
(§1) C4-2 prostate cancer cells were subcutaneously implanted into the back of the 4 to 6 week old athymic nude mice. […] The serum prostate specific antigen (PSA) levels, which indicating the presence of prostate cancers, were monitored during the tumor reduction study.

Data set [4] has as its system P69 normal human prostate epithelial cells. Kind of data set: MTT cytotoxicity assay, P69. It counts as cell-based. The settings on record: Epithelial cell, 48 hours. On the procedure: (§2) C4-2 (FIG. 13A) and P69 (FIG. 13B) cells were plated in 96 well plates (3,000/well). […] (FIG. 13C) SN12C and (FIG. 13D) HEK293 cells were plated in 96 well plates (3,000/well).
On the technique in general: Tetrazolium assays rely on reduction of a dye to a coloured formazan, in cell work by metabolically active cells.

Data set [5] deals with C4-2 human prostate cancer cells implanted subcutaneously. Kind of data set: Subcutaneous C4-2 prostate tumor model. The settings on record: for incidence of tumor formation: SQ C4-2, i.p., IR783 and IR-MUT1 5 mg/kg daily, taxotere 15 mg/kg twice per week; for apoptosis in SQ C4-2 tumors (histopathology, H/E stain): SQ C4-2 tumors in mice. Type of data set: in vivo, athymic nude mice. On the procedure: 1 million C4-2 human prostate cancer cells were implanted subcutaneously into the back of the 4 to 6 week old athymic nude mice. […] Tumor diameters were measured with a caliper, and tumor volume in mm^3 is calculated by the formula: Volume=(width)^2×length/2.
Serum PSA levels were used to monitor tumor growth in a C4-2 SQ tumor model. Mice were checked for serum PSA levels before implantation and at 35 and 45 days after tumor cell implantation.
as §1

Data set [6] has as its system C4-2 human prostate cancer cells implanted intraosseously into the tibia. Kind of data set: Intratibial C4-2 prostate tumor model. It counts as in vivo, athymic nude mice. The settings on record: for tumors growing from tibia (incidence): i.p. from 30 days after implantation. On the procedure: 1 million C4-2 human prostate cancer cells were implanted intraosseously into the tibia of the 4 to 6 week old athymic nude mice. […] The animals were observed daily and body weights were measured daily. Tumor diameters are measured with calipers, and tumor volume in mm^3 is calculated by the formula: Volume=(width)^2×length×0.5236.
In another tumor model, C4-2 cancer cells were administered intraosseously into the tibia of the 4 to 6 week old athymic nude mice.

In data set [7] the test system is HEK293 human embryonic kidney cells. Kind of data set: MTT cytotoxicity assay, HEK293. Type of data set: cell-based. The settings on record: 48 hrs. On the procedure: as §2
For data set [8], the system named is SN12C human renal cancer cells. Kind of data set: MTT cytotoxicity assay, SN12C. It counts as cell-based. The settings on record: 48 hrs. How it is done:
as §2

The test system of data set [9] is C4-2 human prostate cancer cells. Kind of data set: MTT cytotoxicity assay, C4-2. The settings on record: C4-2 cells, 48 hrs. It counts as cell-based. How it is done:
as §2

Data set [10] has as its system cancer cells. Kind of data set: Toxicity to cancer cells at day 2 (FIG. 6). Type of data set: cell-based. The settings on record: evaluated at day 2; compared with free nonconjugated drug taxotere. From the text: IR-783 (dye molecule only) is nontoxic. […] This is expected since IR783 conjugated to docetaxel or paclitaxel, accumulation in cells require enzymatic activation, which releases the active taxotere or taxol component inside of the cells to exert cytotoxicity against the growth of cancer cells.

Take `I.O=C1C(/C=c2\c3cccc4cccc(c43)n2CCCc2ccccc2)=C([O-])C/1=C/C1=[N+](CCCc2ccccc2)c2cccc3cccc1c23`: in data set [1], the In vivo targeting entry was “poor”.
On the same count and under the same terms, the entry for `CN1/C(=C/C=C2\CCCC(/C=C/C3=[N+](C)c4ccc5ccccc5c4C3(C)C)=C2Cl)C(C)(C)C2=c3ccccc3=CCC21.[I-]` (stereo not shown) is “poor”.
In the case of `CN1/C(=C/C=C(Cl)/C=C/C2=[N+](C)c3ccc4ccccc4c3C2(C)C)C(C)(C)c2c1ccc1ccccc21`, the In vitro targeting entry in [2] is reported as “excellent”.
`CC1(C)C(/C=C/C2=C(Cl)C(=C/C=C3/N(CCCc4ccccc4)c4ccccc4C3(C)C)/CCC2)=[N+](CCCc2ccccc2)c2ccccc21`: in data set [2], the In vitro targeting result is on record as “excellent”. The In vivo targeting entry in [1] is reported as “poor”.
For the compound `O=C(O)CCCCCn1/c(=C/C=C2\CCCC(/C=C/C3=[N+](CCCCCC(=O)O)c4cccc5cccc3c45)=C2Cl)c2cccc3cccc1c32.[Na+].[Na+]`, the In vitro targeting result in data set [2] is reported as “poor”. Further, the In vivo targeting entry in data set [1] is “poor”.
In the case of `CCn1/c(=C/C=C/C2=[N+](CC)c3cccc4cccc2c34)c2cccc3cccc1c32`, the In vitro targeting entry in data set [2] was “good”. For the same compound, the In vivo targeting result in data set [1] was “poor”.
With `CN1/C(=C/C=C(Cl)/C=C/C2=[N+](C)c3ccccc3C2(C)C)C(C)(C)c2ccccc21.[I-]`, in [2], the In vitro targeting entry is “excellent”.
Take `CC(=O)O[C@@]12CO[C@@H]1C[C@H](O)[C@@]1(C)C(=O)[C@H](O)C3=C(C)[C@@H](OC(=O)[C@H](O)[C@@H](NC(=O)OC(C)(C)C)c4ccccc4)C[C@@](O)([C@@H](OC(=O)c4ccccc4)[C@H]21)C3(C)C` [taxotere, docetaxel, reference compound]: in data set [3], the “effect on body weight” value is on record as “noticeably lower”. For the same compound, the IC50 is roughly 10 nM in [4], roughly 600 nM in [7], 12 nM in data set [8] and 10 nM in [9]. For the same compound, the “serum PSA levels” value in data set [5] (35 and 45 days after tumor cell implantation, compared with IR-783 (control) group) was “greatly depressed; also recorded: dramatically lower; also recorded: significantly lower”. Further, in data set [5], the “incidence of tumor formation” value is “no tumor growing; also recorded: no tumor formed”. In addition, in data set [6], the “bone lesions on X-ray” value is “no lesion”. Further, the “tumors growing from tibia (incidence)” value in data set [6] is reported as 0/5.
Turning to `COc1ccc2c(c1)C(C)(C)C(/C=C/C=C/C=C1/N(C)c3ccc(OC)cc3C1(C)C)=[N+]2C.[I-]`, the In vitro targeting result in data set [2] is listed as “excellent”.
Turning to `CC1(C)C(/C=C/C2=C(Cl)C(=C/C=C3/N(CCCCC(=O)O)c4ccccc4C3(C)C)/CCC2)=[N+](CCCCC(=O)[O-])c2ccccc21`, the In vitro targeting result in [2] is on record as “excellent”. For the same compound, the In vivo targeting result in [1] is on record as “excellent”.
For the compound `CC1(C)C(/C=C/C2=C(Cl)C(=C/C=C3/N(CCCCO)c4ccccc4C3(C)C)/CCC2)=[N+](CCCCO)c2ccccc21`, the In vitro targeting entry in data set [2] is given as “poor”. Also, in data set [1], the In vivo targeting entry was “poor”.
Turning to `CC1(C)C(/C=C/C2=C(Cl)C(=C/C=C3/N(CCCCCC(=O)O)c4ccccc4C3(C)C)/CCC2)=[N+](CCCCCC(=O)O)c2ccccc21.[Na+].[Na+]`, the In vitro targeting result in [2] was “excellent”. The In vivo targeting entry in [1] is “excellent”.
For the compound `CC1(C)C(=CC=C2CCCC(C=CC3=[N+](CCCCS(=O)(=O)[O-])c4ccccc4C3(C)C)=C2Cl)N(CCCCS(=O)(=O)[O-])c2ccccc21.[Na+]` [IR-783, reference compound], in data set [3], the “effect on body weight” value is on record as “no body weight loss”. In addition, the “incidence of tumor formation” value in data set [5] is given as 9/20. Besides, the entries for the “apoptosis in SQ C4-2 tumors (histopathology, H/E stain)” value in [5] and in [5] (listed as IR783) were “negligible” and “not affected”, respectively. Also, the “toxicity to cancer cells” value in [10] is “nontoxic”. In addition, the “bone lesions on X-ray” value in data set [6] was “both the osteolytic and osteoblastic lesions were apparently observed”; in data set [6] (listed as IR783), “severe osteolytic lesions”. For the same compound, in [6] (IR-783 group versus IR-MUT1 group), the “average volume of tumor” value is reported as “significantly higher”. Further, in data set [6], the “tumors growing from tibia (incidence)” value is 4/5.
`CC1(C)C(/C=C/C2=C(Cl)C(=C/C=C3/N(CCO)c4ccccc4C3(C)C)/CCC2)=[N+](CCO)c2ccccc21`: the In vitro targeting entry in data set [2] is on record as “excellent”. Further, the In vivo targeting entry in data set [1] is listed as “low intensity”.

Broadly, the IC50 is the concentration that inhibits the measured activity by half. Lower therefore signals greater potency.
